Results on 15 compounds are retold here after patent publication US20230357179A1, “RAF KINASE INHIBITORS AND METHODS OF USE THEREOF” (Deciphera Pharmaceuticals, LLC, priority 2021, published 2023).

pIC50: −log10 of the molar value. Some results are limits rather than exact numbers.

The pIC50 is −log10 of the IC50, conventionally taken in molar units.

One test has as its target T1, B-Raf kinase (Homo sapiens, UniProt P15056).
T1 construct: GST (N); purchased Sigma
Description: Biochemical assay for B-Raf.1 (coupled pyruvate kinase/lactate dehydrogenase). The following applies: read-out: BRAF.1 IC50. On the procedure: Biochemical Assay for B-Raf.1
(§1) Activity of B-Raf kinase (SEQ. ID NO: 2) was determined spectroscopically using a coupled pyruvate kinase/lactate dehydrogenase assay that continuously monitors the ATP hydrolysis-dependent oxidation of NADH (e.g., Schindler et al., Science, 2000, 289, 1938-1942). Assays were conducted in 384-well plates (100 μL final volume) using 0.13 nM B-Raf (Sigma), 1.5 units pyruvate kinase, 2.1 units lactate dehydrogenase, 1 mM phosphoenol pyruvate, 0.28 mM NADH, 30.1 nM MEK (SignalChem), and 1 mM ATP in assay buffer (100 mM Tris, pH 7.5, 15 mM MgCl2, 0.5 mM DTT, 0.1% octyl-glucoside, 0.002% (w/v) BSA, and 0.002% Triton X-100). Inhibition of B-Raf was measured by adding serial diluted test compound (final assay concentration of 1% DMSO). A decrease in absorption at 340 nm was monitored continuously for 6 h at 30° C. on a multi-mode microplate reader (BioTek). The reaction rate was calculated using the 4 to 5 h time frame. The reaction rate at each concentration of compound was converted to percent inhibition using controls (i.e., reaction with no test compound and reaction with a known inhibitor) and IC50 values were calculated by fitting a four-parameter sigmoidal curve to the data using Prism (GraphPad software).

The target in a further test is T2, A-Raf kinase (Homo sapiens, UniProt P10398, Y301D/Y302D).
T2 construct: purchased Sigma
T2 sequence (P10398 with tags, fused parts or gaps Y301D/Y302D): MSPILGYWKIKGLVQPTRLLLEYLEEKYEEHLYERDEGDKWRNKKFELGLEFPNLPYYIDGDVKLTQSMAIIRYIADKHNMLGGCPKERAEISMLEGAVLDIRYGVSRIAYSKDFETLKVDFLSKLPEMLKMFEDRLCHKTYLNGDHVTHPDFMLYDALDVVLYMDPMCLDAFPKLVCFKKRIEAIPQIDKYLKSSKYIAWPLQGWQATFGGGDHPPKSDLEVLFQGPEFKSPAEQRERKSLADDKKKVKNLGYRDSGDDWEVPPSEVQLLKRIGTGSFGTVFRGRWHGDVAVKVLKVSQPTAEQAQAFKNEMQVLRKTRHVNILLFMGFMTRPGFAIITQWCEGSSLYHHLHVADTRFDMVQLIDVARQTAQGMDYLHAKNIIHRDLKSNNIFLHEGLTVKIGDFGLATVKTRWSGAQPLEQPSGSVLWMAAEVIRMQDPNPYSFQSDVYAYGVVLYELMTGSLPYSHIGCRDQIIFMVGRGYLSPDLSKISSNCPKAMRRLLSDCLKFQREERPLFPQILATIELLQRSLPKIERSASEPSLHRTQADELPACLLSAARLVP
In words: Biochemical assay for A-Raf.1 (coupled pyruvate kinase/lactate dehydrogenase). The following applies: read-out: ARAF.1 IC50. On the procedure:
Biochemical assay for A-Raf.1
as §1, with “A-Raf” for “B-Raf”, “NO. 1)” for “NO: 2)”, “5.55” for “0.13”

For another test, the system named is A375 cells. Description: A375 cell proliferation assay (1), resazurin, 96-well. The following applies: Homo sapiens, A-375, inhibition of cell proliferation. It counts as cell-based. On the procedure: A375 Cell Proliferation Assay (1)
A375 cells (catalog (#CRL-1619) are obtained from the American Type Culture Collect (ATTC, Manassas, VA). Briefly, cells were grown in DMEM High Glucose supplemented with 10% characterized fetal bovine serum (Invitrogen, Carlsbad, CA) and 1% Penicillin/Streptomycin/L-Glutamine at 37° C., 5% CO2, and 95% humidity. Cells are expanded until reaching 70-95% confluency at which point they are sub-cultured or harvested for assay use. A serial dilution of test compound is dispensed into a 96-well black clear bottom plate in triplicate. Two thousand five hundred cells are added per well in 200 μL complete growth medium in the 96-well plate. Plates are incubated for 67-72 hours at 37° C., 5% CO2, and 95% humidity. At the end of the incubation, 40 μL of a 440 μM solution of resazurin (Sigma, St. Louis, MO) in PBS is added to each well of the plate and plates are incubated for an additional 5-6 hours at 37° C., 5% CO2, and 95% humidity. Plates are read on a Synergy2 or equivalent reader (Biotek, Winooski VT) using an excitation of 540 nm and an emission of 600 nm. Data is analyzed using Prism software (GraphPad, San Diego, CA) to calculate IC50 values.

Another test has as its target T3, C-Raf kinase (Homo sapiens, UniProt P04049, Y340D/Y341D).
T3 construct: Y340D,; GST (N); purchased Sigma
In words: Biochemical assay for C-Raf.1 (coupled pyruvate kinase/lactate dehydrogenase). The following applies: read-out: CRAF.1 IC50. On the procedure: Biochemical Assay for C-Raf.1
as §1, with “of C-Raf” for “of B-Raf”, “NO: 3)” for “NO: 2)”, “using 0.43” for “using 0.13”, “nM C-Raf” for “nM B-Raf”

The target in the next test is T4, B-Raf (V600E) kinase (Homo sapiens, UniProt P15056, V600E).
T4 construct: B-Raf (V600E) residues 416-766 with a; GST (N); purchased SignalChem
T4 sequence (P15056 416-766 V600E): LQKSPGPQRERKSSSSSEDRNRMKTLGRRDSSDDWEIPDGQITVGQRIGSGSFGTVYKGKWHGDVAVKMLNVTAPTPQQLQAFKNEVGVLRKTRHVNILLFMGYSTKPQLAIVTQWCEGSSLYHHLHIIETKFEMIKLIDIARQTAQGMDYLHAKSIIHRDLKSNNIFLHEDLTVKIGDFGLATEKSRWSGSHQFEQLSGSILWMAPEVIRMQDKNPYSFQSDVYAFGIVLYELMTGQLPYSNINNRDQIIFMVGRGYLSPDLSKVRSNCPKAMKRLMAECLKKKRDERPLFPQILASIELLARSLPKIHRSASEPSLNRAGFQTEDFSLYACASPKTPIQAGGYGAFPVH
Description: Biochemical assay for B-Raf (V600E).1 (coupled pyruvate kinase/lactate dehydrogenase). The following applies: read-out: BRAF V600E.1 IC50. On the procedure: Biochemical Assay for B-Raf (V600E).1
Activity of B-Raf (V600E) (SEQ. ID NO: 4) kinase was determined spectroscopically using a coupled pyruvate kinase/lactate dehydrogenase assay that continuously monitors the ATP hydrolysis-dependent oxidation of NADH (e.g., Schindler et al., Science, 2000, 289, 1938-1942). Assays were conducted in 384-well plates (100 μL final volume) using 0.03 nM B-Raf (SignalChem), 1.5 units pyruvate kinase, 2.1 units lactate dehydrogenase, 1 mM phosphoenol pyruvate, 0.28 mM NADH, 30.1 nM MEK (SignalChem), and 1 mM ATP in assay buffer (100 mM Tris, pH 7.5, 15 mM MgCl2, 0.5 mM DTT, 0.1% octyl-glucoside, 0.002% (w/v) BSA, and 0.002% Triton X-100). Inhibition of B-Raf (V600E) was measured by adding serial diluted test compound (final assay concentration of 1% DMSO). A decrease in absorption at 340 nm was monitored continuously for 6 h at 30° C. on a multi-mode microplate reader (BioTek). The reaction rate was calculated using the 3 to 4 h time frame. The reaction rate at each concentration of compound was converted to percent inhibition using controls (i.e., reaction with no test compound and reaction with a known inhibitor) and IC50 values were calculated by fitting a four-parameter sigmoidal curve to the data using Prism (GraphPad software).

T3 sequence (P04049 307-648 Y340D/Y341D): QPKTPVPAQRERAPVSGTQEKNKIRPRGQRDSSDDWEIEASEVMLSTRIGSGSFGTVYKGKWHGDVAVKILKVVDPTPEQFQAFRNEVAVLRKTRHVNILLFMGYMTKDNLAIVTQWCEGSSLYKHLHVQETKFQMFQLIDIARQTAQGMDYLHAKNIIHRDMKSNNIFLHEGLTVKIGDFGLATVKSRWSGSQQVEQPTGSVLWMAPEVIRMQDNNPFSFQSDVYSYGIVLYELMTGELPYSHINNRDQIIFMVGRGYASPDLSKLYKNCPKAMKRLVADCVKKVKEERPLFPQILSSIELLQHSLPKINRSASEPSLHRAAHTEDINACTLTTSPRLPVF
T1 sequence (P15056 416-766): as the sequence (P15056 416-766 V600E) above, with E185V counted along it

Consider `Cc1ccc(NC(=O)NCCC(C)(C)C)cc1-c1cc(N2CCOCC2)nc(N2CC(C)(O)C2)n1` [Example 1, 1-(3,3-dimethylbutyl)-3-(3-(2-(3-hydroxy-3-methylazetidin-1-yl)-6-morpholinopyrimidin-4-yl)-4-methylphenyl)urea], for which the pIC50 at B-Raf kinase was at least 7.00; at A-Raf kinase it was under 6.00; in the test with A375 cells it was at least 7.00; on C-Raf kinase, at least 7.00; on B-Raf (V600E) kinase it was at least 7.00.

`CC(=O)Nc1cc(-c2cc(-c3cc(NC(=O)NCCC4(C)CC4)c(F)cc3C)ccn2)ccn1` [Example 2, N-(4-(4-fluoro-2-methyl-5-(3-(2-(1-methylcyclopropyl)ethyl)ureido)phenyl)-[2,4′-bipyridin]-2′-yl)acetamide]: the pIC50 on B-Raf kinase is 6.00 to 6.30; at A-Raf kinase it was under 6.00; in the test with A375 cells, 5.00 to 6.00; on C-Raf kinase, 6.30 to 7.00; at B-Raf (V600E) kinase, at least 7.00.

Regarding `Cc1ccc(NC(=O)NCCC(C)(C)C)cc1-c1cc(-c2cnn(C)c2)nc(N2CCOCC2)c1` [Example 6], the pIC50 at B-Raf kinase was 6.30 to 7.00; at A-Raf kinase it was under 6.00; in the test with A375 cells it was 5.00 to 6.00; at C-Raf kinase it was 6.30 to 7.00; on B-Raf (V600E) kinase, at least 7.00.

With `Cc1cc(F)c(NC(=O)NCCC(C)(C)C)cc1-c1cc(OCCO)nc(C2CCOCC2)c1` [Example 9], the pIC50 on B-Raf kinase is at least 7.00; on A-Raf kinase, under 6.00; with A375 cells it was 6.30 to 7.00; at C-Raf kinase it was at least 7.00; on B-Raf (V600E) kinase it was at least 7.00.

Turning to `Cc1ccc(NC(=O)NCCC(C)(C)C)cc1-c1cc(N2CCOCC2)nc(N2CC(O)C2)n1` [Example 11], the pIC50 on B-Raf kinase is 6.00 to 6.30; at A-Raf kinase it was under 6.00; with A375 cells it was 5.00 to 6.00; on C-Raf kinase, 6.30 to 7.00; on B-Raf (V600E) kinase it was at least 7.00.

As to `Cc1ccc(NC(=O)NC2CCCCCC2)cc1-c1cc(OCCO)nc(N2CCOCC2)c1` [Example 13], the pIC50 on B-Raf kinase is 6.30 to 7.00; at A-Raf kinase it was under 6.00; in the test on A375 cells it was 5.00 to 6.00; at C-Raf kinase it was at least 7.00; on B-Raf (V600E) kinase, at least 7.00.

On to `Cc1ccc(NC(=O)N[C@@H]2CCc3ccccc32)cc1-c1cc(OCCO)nc(N2CCOCC2)c1` [Example 15], for which the negative-log IC50 (pIC50) is 6.30 to 7.00 at B-Raf kinase; under 6.00 on A-Raf kinase; 5.00 to 6.00 in the test with A375 cells; at least 7.00 on C-Raf kinase; at least 7.00 at B-Raf (V600E) kinase.

Turning to `Cc1ncc(NC(=O)NCCC(C)(C)C)cc1-c1cc(N2CCOCC2)nc(N2CCOCC2)c1` [Example 19], the negative-log IC50 (pIC50) on B-Raf kinase was 6.00 to 6.30; at A-Raf kinase it was under 6.00; in the test on A375 cells it was 5.00 to 6.00; at C-Raf kinase, 6.30 to 7.00; on B-Raf (V600E) kinase it was at least 7.00.

As to `Cc1ccc(NC(=O)N[C@H]2CCc3ccccc32)cc1-c1cc(OCCO)nc(N2CCOCC2)c1` [Example 20], the negative-log IC50 (pIC50) is 6.00 to 6.30 on B-Raf kinase; under 6.00 at A-Raf kinase; 6.00 to 6.30 in the test with A375 cells; 6.30 to 7.00 on C-Raf kinase; at least 7.00 on B-Raf (V600E) kinase.

For `Cc1ccc(NC(=O)NCCC(C)(C)C#N)cc1-c1cc(-c2cnn(C)c2)nc(N2CCOCC2)c1` [Example 21], the pIC50 at B-Raf kinase was 6.00 to 6.30; at A-Raf kinase, under 6.00; in the test with A375 cells, 5.00 to 6.00; on C-Raf kinase, 6.30 to 7.00; at B-Raf (V600E) kinase it was at least 7.00.

As to `Cc1cc(F)c(NC(=O)NCCC(C)(C)F)cc1-c1cc(OCCO)nc(-c2ccncc2)c1` [Example 25], the negative logarithm of the IC50 (pIC50) was 6.30 to 7.00 on B-Raf kinase; under 6.00 at A-Raf kinase; 5.00 to 6.00 in the test on A375 cells; at least 7.00 on C-Raf kinase; at least 7.00 on B-Raf (V600E) kinase.

With `Cc1cc(F)c(NC(=O)NCCC2(C(F)(F)F)CC2)cc1-c1cc(N2CCOCC2)nc(N2CC[C@H](N(C)C)C2)c1` [Example 26], the negative logarithm of the IC50 (pIC50) was 6.30 to 7.00 on B-Raf kinase; under 6.00 at A-Raf kinase; 5.00 to 6.00 in the test with A375 cells; 6.30 to 7.00 at C-Raf kinase; at least 7.00 at B-Raf (V600E) kinase.

For the compound `CNc1cc(-c2cc(-c3cc(NC(=O)NCCC4(C)CC4)c(F)cc3C)cc(OCCO)n2)ccn1` [Example 27], the pIC50 on B-Raf kinase was at least 7.00; at A-Raf kinase, under 6.00; in the test on A375 cells, 6.00 to 6.30; at C-Raf kinase it was at least 7.00; on B-Raf (V600E) kinase it was at least 7.00.

Turning to `CNc1cc(-c2cc(-c3cc(NC(=O)NCCC4(C(F)(F)F)CC4)c(F)cc3C)cc(OCCO)n2)ccn1` [Example 28], the negative logarithm of the IC50 (pIC50) was 6.30 to 7.00 at B-Raf kinase; under 6.00 at A-Raf kinase; 6.30 to 7.00 with A375 cells; at least 7.00 at C-Raf kinase; at least 7.00 at B-Raf (V600E) kinase.

On to `Cc1cc(F)c(NC(=O)Nc2cnn(C(C)(C)C)c2)cc1-c1cc(OCCN(C)C)nc(N2CCOCC2)c1` [Example 29], for which the pIC50 on B-Raf kinase is 6.00 to 6.30; on A-Raf kinase, under 6.00; in the test on A375 cells, 5.00 to 6.00; at C-Raf kinase it was 6.30 to 7.00; at B-Raf (V600E) kinase, at least 7.00.
